Measured values reported in paper PMC10759932 (Nature cell biology, 2023).

Key:
PcaK = target: T1, PcaK (Pseudomonas putida, UniProt Q51955); experiment: radiolabelled uptake into E. coli cells; assay type: cell-based; settings: 50 μM 4-HB; whole E. coli cells; labelled compound
T1 sequence (Q51955 1-448): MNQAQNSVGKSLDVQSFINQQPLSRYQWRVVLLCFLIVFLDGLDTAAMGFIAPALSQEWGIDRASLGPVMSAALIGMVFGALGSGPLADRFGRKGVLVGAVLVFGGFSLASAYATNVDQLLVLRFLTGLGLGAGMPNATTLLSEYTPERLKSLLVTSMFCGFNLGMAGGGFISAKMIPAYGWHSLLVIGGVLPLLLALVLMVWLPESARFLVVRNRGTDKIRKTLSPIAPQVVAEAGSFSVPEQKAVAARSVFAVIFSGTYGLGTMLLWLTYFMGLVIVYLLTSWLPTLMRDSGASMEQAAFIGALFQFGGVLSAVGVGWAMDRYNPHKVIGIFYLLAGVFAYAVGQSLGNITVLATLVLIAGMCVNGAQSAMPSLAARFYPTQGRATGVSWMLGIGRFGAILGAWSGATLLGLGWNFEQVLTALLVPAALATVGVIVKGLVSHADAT

S. pombe Hem25p = S. pombe Hem25p (Schizosaccharomyces pombe, UniProt Q9P6N6); settings: whole E. coli cells; labelled compound
Chain of S. pombe Hem25p (Q9P6N6 whole entry): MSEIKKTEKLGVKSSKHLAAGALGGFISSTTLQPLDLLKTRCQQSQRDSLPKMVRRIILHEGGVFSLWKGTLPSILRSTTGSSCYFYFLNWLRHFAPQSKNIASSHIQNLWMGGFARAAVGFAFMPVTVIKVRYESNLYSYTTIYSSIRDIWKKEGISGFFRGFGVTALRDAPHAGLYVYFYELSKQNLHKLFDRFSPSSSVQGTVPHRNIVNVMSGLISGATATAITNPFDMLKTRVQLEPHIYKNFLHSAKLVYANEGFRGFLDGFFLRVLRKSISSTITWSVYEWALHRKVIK

Structure (SMILES)	radiolabelled uptake into E. coli cells (PcaK)	radiolabelled uptake into E. coli cells (S. pombe Hem25p)
O=C(O)c1ccc(O)cc1 [4-HB]	Uptake of 4-HB was only seen when the known bacterial 4-HB transporter PcaK was expressed	
C=C(C)CCOP(=O)(O)OP(=O)(O)O [IPP]		Hem25p from S. pombe and S. cerevisiae
